Source: US20240041042A1, “1-(PYRIDYL)-5-AZINYLPYRAZOLE DERIVATIVES, AND THEIR USE FOR CONTROL OF UNDESIRED PLANT GROWTH” (Bayer Aktiengesellschaft, priority 2020, published 2024)
Like-named read-outs stand apart in the source and are kept apart here.

Columns and labels:
Type in all cases: in vivo
[1] = tested on: Echinochloa crus-galli (ECHCG); test: Post-emergence herbicidal action against ECHCG; conditions: dosage 320 g/ha
Summary of the method: (§1)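 Doses of 320 g/ha or lower, suffixes a, b and c marking different dosages, were applied post-emergence at the one-leaf stage in 600 l/ha water with 0.5% additive. Damage was assessed visually after about 3 weeks in the greenhouse.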

[2] = tested on: Alopecurus myosuroides (ALOMY); test: Pre-emergence herbicidal action against ALOMY; conditions: 320 g/ha; scored visually after about 3 weeks; 100% = plants have died
Summary of the method: (§2)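 Pre-emergence soil-surface spray, WP/EC formulation, 0.5% additive, 600 l/ha water, rates of 320 g/ha or lower. Greenhouse, ~3 wk. Visual score, % of untreated control (100% = plants dead, 0% = like control).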

[3] = tested on: Setaria viridis (SETVI); test: Post-emergence herbicidal action against SETVI; conditions: dosage 320 g/ha
Summary of the method: as §1

[4] = tested on: Echinochloa crus-galli (ECHCG); test: Pre-emergence herbicidal action against ECHCG; conditions: dosage 320 g/ha
Summary of the method: as §2

[5] = tested on: Polygonum convolvulus (POLCO); test: Pre-emergence herbicidal action against POLCO
Summary of the method: as §2

[6] = tested on: Verconica persica (VERPE); test: Post-emergence herbicidal action against VERPE
Summary of the method: as §1

[7] = tested on: Pharbitis purpurea (PHBPU); test: Post-emergence herbicidal action against PHBPU
Summary of the method: as §1

[8] = tested on: Triticum aestivum (TRZAS); conditions: pre-emergence, crop plant compatibility, in comparison to untreated controls
Summary of the method: (§3)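 Crop injury rated visually in percent against untreated plants roughly 3 weeks after treatment (0% no effect, 100% plants dead). Compounds, as WP or EC with 0.5% additive in 600 l/ha water, were applied to the covering soil right after sowing; greenhouse growth. Suffixes a, b, c denote different dosages.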

[9] = tested on: Lolium rigidum (LOLRI); test: Post-emergence herbicidal action against LOLRI; conditions: dosage 320 g/ha
Summary of the method: as §1

[10] = tested on: Pharbitis purpurea (PHBPU); test: Pre-emergence herbicidal action against PHBPU; conditions: dosage 320 g/ha
Summary of the method: as §2

[11] = tested on: Amaranthus retroflexus (AMARE); test: Pre-emergence herbicidal action against AMARE; conditions: visual scoring after about 3 weeks vs untreated controls
Summary of the method: as §2

[12] = tested on: Amaranthus retroflexus (AMARE); test: Post-emergence herbicidal action against AMARE
Summary of the method: as §1

[13] = tested on: Lolium rigidum (LOLRI); test: Pre-emergence herbicidal action against LOLRI; conditions: dosage 320 g/ha
Summary of the method: as §2

[14] = tested on: Matricaria inodora (MATIN); test: Post-emergence herbicidal action against MATIN; conditions: dosage 320 g/ha
Summary of the method: as §1

[15] = tested on: Setaria viridis (SETVI); test: Pre-emergence herbicidal action against SETVI
Summary of the method: as §2

[16] = tested on: Matricaria inodora (MATIN); test: Pre-emergence herbicidal action against MATIN; conditions: dosage 320 g/ha
Summary of the method: as §2

[17] = tested on: Oryza sativa (ORYSA); conditions: crop plant compatibility, effect in comparison to untreated controls
Summary of the method: (§4)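 One-leaf-stage crops (2–3 wk post-sowing, sandy loam, greenhouse) sprayed on green parts; 0.5% additive, 600 l/ha water. Rated by eye ~3 wk later, % vs untreated; suffixes a/b/c mark different dosages.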

[18] = tested on: Triticum aestivum (TRZAS); conditions: crop plant compatibility, effect vs untreated controls
Summary of the method: as §4

[19] = tested on: Avena fatua (AVEFA); test: Pre-emergence herbicidal action against AVEFA; conditions: 320 g/ha, visual scoring after about 3 weeks vs untreated controls
Summary of the method: as §2

[20] = tested on: Alopecurus myosuroides (ALOMY); test: Post-emergence herbicidal action against ALOMY; conditions: 320 g/ha, visual rating about 3 weeks after treatment vs untreated controls (100% = plants have died, 0% = like control plants)
Summary of the method: as §1

[21] = tested on: Abutilon theophrasti (ABUTH); test: Pre-emergence herbicidal action against ABUTH; conditions: Dosage column 320 g/ha (title prints 3200 g/ha); scored visually after about 3 weeks; 100% = plants have died
Summary of the method: as §2

[22] = tested on: Viola tricolor (VIOTR); test: Post-emergence herbicidal action against VIOTR
Summary of the method: as §1

[23] = tested on: Oryza sativa (ORYSA); conditions: pre-emergence, 80 g/ha, crop plant compatibility, in comparison to untreated controls
Summary of the method: as §3

[24] = tested on: Zea mays (ZEAMX); conditions: pre-emergence, 80 g/ha, crop plant compatibility, in comparison to untreated controls
Summary of the method: as §3

[25] = tested on: Viola tricolor (VIOTR); test: Pre-emergence herbicidal action against VIOTR
Summary of the method: as §2

[26] = tested on: Avena fatua (AVEFA); test: Post-emergence herbicidal action against AVEFA; conditions: 320 g/ha, visual rating about 3 weeks after treatment
Summary of the method: as §1

[27] = tested on: Zea mays (ZEAMX); conditions: crop plant compatibility, 80 g/ha, effect vs untreated controls
Summary of the method: as §4

[28] = tested on: Polygonum convolvulus (POLCO); test: Post-emergence herbicidal action against POLCO
Summary of the method: as §1

[29] = tested on: Verconica persica (VERPE); test: Pre-emergence herbicidal action against VERPE; conditions: dosage 320 g/ha
Summary of the method: as §2

[30] = 320 g/ha, visual rating about 3 weeks after treatment
[31] = 80 g/ha, visual rating about 3 weeks after treatment vs untreated controls (100% = plants have died, 0% = like control plants)

## COC(=O)CCOC(=O)COc1nn(-c2cccc(C)n2)c(-c2ccc(F)nc2)c1Cl [Example I-276]
[1]
  Post-emergence action against ECHCG in %: 80%
[2]
  Pre-emergence action against ALOMY: 80%
[3]
  Post-emergence action against SETVI in %: 90%
[4]
  Pre-emergence action against ECHCG in %: 90%
[5]; dosage 320 g/ha
  Pre-emergence action against POLCO in %: 80%
[6]; 320 g/ha, VERPE
  Post-emergence action against VERPE in %: 90%
[6]; dosage 80 g/ha
  Post-emergence action against VERPE in %: 80%
[7]; dosage 80 g/ha
  Post-emergence action against PHBPU in %: 80%
[7]; dosage 320 g/ha
  Post-emergence action against PHBPU in %: 90%
[8]; 80 g/ha
  Pre-emergence action against TRZAS in %: 0%
[8]; 320 g/ha
  Pre-emergence action against TRZAS in %: 0%
[9]
  Post-emergence action against LOLRI in %: 80%
[10]
  Pre-emergence action against PHBPU in %: 80%
[11]; 320 g/ha
  Pre-emergence action against AMARE in %: 90%
[12]; [30]
  Post-emergence action against AMARE in %: 90%
[13]
  Pre-emergence action against LOLRI in %: 100%
[14]
  Post-emergence action against MATIN in %: 80%
[15]; dosage 320 g/ha
  Pre-emergence action against SETVI in %: 90%
[16]
  Pre-emergence action against MATIN in %: 80%
[17]; 80 g/ha
  Post-emergence action against ORYSA in %: 10%
[18]; 80 g/ha
  Post-emergence action against TRZAS in %: 0%
[18]; 320 g/ha
  Post-emergence action against TRZAS in %: 20%

## O=C(O)COc1nn(-c2ncccc2C(F)(F)F)c(-c2ccc(F)nc2)c1Br [Example I-310]
[1]
  Post-emergence action against ECHCG in %: 90%
[2]
  Pre-emergence action against ALOMY: 100%
[3]
  Post-emergence action against SETVI in %: 90%
[19]
  Pre-emergence action against AVEFA in %: 90%
[20]
  Post-emergence action against ALOMY in %: 90%
[21]
  Pre-emergence action against ABUTH: 80%
[5]; dosage 320 g/ha
  Pre-emergence action against POLCO in %: 90%
[22]; 80 g/ha
  Post-emergence action against VIOTR in %: 80%
[22]; 320 g/ha
  Post-emergence action against VIOTR in %: 90%
[6]; 320 g/ha, VERPE
  Post-emergence action against VERPE in %: 80%
[23]
  Pre-emergence action against ORYSA in %: 0%
[24]
  Pre-emergence action against ZEAMX in %: 0%
[9]
  Post-emergence action against LOLRI in %: 90%
[11]; 80 g/ha
  Pre-emergence action against AMARE in %: 80%
[11]; 320 g/ha
  Pre-emergence action against AMARE in %: 100%
[12]; [31]
  Post-emergence action against AMARE in %: 80%
[12]; [30]
  Post-emergence action against AMARE in %: 80%
[13]
  Pre-emergence action against LOLRI in %: 100%
[25]; 320 g/ha, Viola tricolor
  Pre-emergence action against VIOTR in %: 100%
[25]; dosage 80 g/ha
  Pre-emergence action against VIOTR in %: 90%
[26]
  Post-emergence action against AVEFA in %: 100%
[17]; 80 g/ha
  Post-emergence action against ORYSA in %: 10%
[17]; 320 g/ha
  Post-emergence action against ORYSA in %: 20%
[27]
  Post-emergence action against ZEAMX in %: 0%
[28]; dosage 80 g/ha
  Post-emergence action against POLCO in %: 80%
[28]; dosage 320 g/ha
  Post-emergence action against POLCO in %: 80%

## COCCOC(=O)COc1nn(-c2cccc(C)n2)c(-c2ccc(F)nc2)c1Br [Example I-277]
[1]
  Post-emergence action against ECHCG in %: 80%
[4]
  Pre-emergence action against ECHCG in %: 80%
[6]; 320 g/ha, VERPE
  Post-emergence action against VERPE in %: 80%
[7]; dosage 320 g/ha
  Post-emergence action against PHBPU in %: 80%
[8]; 80 g/ha
  Pre-emergence action against TRZAS in %: 0%
[10]
  Pre-emergence action against PHBPU in %: 80%
[11]; 320 g/ha
  Pre-emergence action against AMARE in %: 80%
[13]
  Pre-emergence action against LOLRI in %: 90%
[15]; dosage 320 g/ha
  Pre-emergence action against SETVI in %: 80%
[17]; 80 g/ha
  Post-emergence action against ORYSA in %: 10%
[18]; 80 g/ha
  Post-emergence action against TRZAS in %: 0%
[18]; 320 g/ha
  Post-emergence action against TRZAS in %: 20%
[27]
  Post-emergence action against ZEAMX in %: 10%

## O=C(O)C1CCCN1C(=O)COc1nn(-c2ccccn2)c(-c2ccc(F)nc2)c1Br (centres unmarked) [Example I-111]
[1]
  Post-emergence action against ECHCG in %: 90%
[2]
  Pre-emergence action against ALOMY: 90%
[19]
  Pre-emergence action against AVEFA in %: 80%
[20]
  Post-emergence action against ALOMY in %: 100%
[4]
  Pre-emergence action against ECHCG in %: 100%
[21]
  Pre-emergence action against ABUTH: 80%
[5]; dosage 80 g/ha
  Pre-emergence action against POLCO in %: 80%
[5]; dosage 320 g/ha
  Pre-emergence action against POLCO in %: 100%
[23]
  Pre-emergence action against ORYSA in %: 0%
[24]
  Pre-emergence action against ZEAMX in %: 0%
[11]; 80 g/ha
  Pre-emergence action against AMARE in %: 90%
[11]; 320 g/ha
  Pre-emergence action against AMARE in %: 100%
[12]; [31]
  Post-emergence action against AMARE in %: 80%
[12]; [30]
  Post-emergence action against AMARE in %: 90%
[13]
  Pre-emergence action against LOLRI in %: 100%
[25]; 320 g/ha, Viola tricolor
  Pre-emergence action against VIOTR in %: 100%
[25]; dosage 80 g/ha
  Pre-emergence action against VIOTR in %: 80%
[29]
  Pre-emergence action against VERPE in %: 90%
[15]; dosage 80 g/ha
  Pre-emergence action against SETVI in %: 90%
[15]; dosage 320 g/ha
  Pre-emergence action against SETVI in %: 100%
[16]
  Pre-emergence action against MATIN in %: 80%
[17]; 80 g/ha
  Post-emergence action against ORYSA in %: 0%
[17]; 320 g/ha
  Post-emergence action against ORYSA in %: 0%
[18]; 80 g/ha
  Post-emergence action against TRZAS in %: 0%
[28]; dosage 320 g/ha
  Post-emergence action against POLCO in %: 80%
